Values of other authors, collected in patent US6756428B2, “Degradable plastics possessing a microbe-inhibiting quality” (Seefar Technologies, Incorporated, priority 1999, dated 2004).
Values after ≈ are worked out from the molar mass of the structure shown. Like-named read-outs stand apart in the source and are kept apart here.

What was measured:
[1] = test system: Staphylococcus aureus bacteria
[2] = test system: Pseudomonas aeruginosa bacteria; conditions: bacterium P aeruginosa

MIC (fungus Aspergillus niger; against the fungus Aspergillus niger) | MIC ([1]; against Staphylococcus aureus bacteria) | solubility in acetone (acetone, 25° C.) [mg/mL] | solubility in ethanol (25° C.) [mg/mL] | solubility in water (25° C.) [mg/mL] | Structure (SMILES) | MIC (fungus Aspergillus niger; against A. niger) | LD50 oral toxicity (dogs) [mg/kg] | MIC ([1]; against S. aureus) | solubility in dilute alkali solution (dilute alkali solution) | solubility in ethanol | solubility in water | MIC [2]
about 5 mg/L | about 50 mg/L | 350 (≈ 829 mM) | 20 (≈ 47.4 mM) | 0.0001 (≈ 0.000237 mM) | Cc1ccc(S(=O)(=O)C(I)I)cc1 [DIMTS, diiodomethyl-p-tolylsulphone] |  |  |  |  |  |  | 
 |  |  |  |  | Oc1cc(Cl)ccc1Oc1ccc(Cl)cc1Cl [triclosan, 2,4,4″-trichloro-2-hydroxydiphenylether] | about 100 ppm | > 5000 | about 0.01 ppm | sparingly soluble | soluble | insoluble | about 100 ppm
